According to patent publication US8569495B2, “Anthelmintic agents and their use” (Intervet International B.V., priority 2007, dated 2013):
Where two headings read alike, the source gives them in different places.

Tested on: Ascaridia galli (L3) and Oesophagostomum dentatum (L3 and L4)
Assay: In vitro anthelmintic activity against larval stages of Ascaridia galli and Oesophagostomum dentatum (MEC)
Details: A. galli L3, O. dentatum L3 and L4; for minimal effective concentration: Ascaridia galli, 20 larvae per well, microscopic examination
[1] = in vitro, read-out: minimum effective concentration (MEC) against one or more of the tested nematodes
[2] = in vitro, read-out: minimum effective concentration (MEC) against two or more of the tested nematodes
[3] = read-out: minimum effective concentration (MEC) against two or more of the tested nematodes, in vitro

Structure (SMILES) | minimal effective concentration [1] [µM] | minimal effective concentration [2] [µM] | further results
O=C(NCC1CCC(Nc2ccc([N+](=O)[O-])c(C(F)(F)F)c2)CC1)N1CCN(c2ccc(C(F)(F)F)cc2)CC1 (stereo not shown) [Example 145] | < 1 | < 1 | 
CC(C)(C)c1ccc(N2CCN(C(=S)COC3CCC(Nc4ccc(OC(F)(F)F)c(C(F)(F)F)c4)CC3)CC2)cc1 (stereo not shown) [Example 206] | < 1 |  | 
CC(C)(C)c1ccc(N2CCN(C(=O)COC3CCC(Oc4ccc([N+](=O)[O-])c(C(F)(F)F)c4)CC3)CC2)cc1 (stereo not shown) [Example 260] |  | < 1 | 
O=C(CO[C@H]1CC[C@H](Nc2ccc([N+](=O)[O-])c(C(F)(F)F)c2)CC1)N1CCC(c2ccc(F)cc2F)CC1 [Example 22, 1-[4-(2,4-difluoro-phenyl)-piperidin-1-yl]-2-[trans-4-(4-nitro-3-trifluoromethyl-phenylamino)-cyclohexyloxy]-ethanone] |  |  | minimal effective concentration [3]: < 1 µM
O=C(COC1CCC(Nc2ccc([N+](=O)[O-])c(C(F)(F)F)c2)CC1)NCCCNc1ccc(C(F)(F)F)cc1 (stereo not shown) [Example 152] |  |  | minimal effective concentration (read-out: minimum effective concentration (MEC) against one or more of the tested nematodes, in vitro): < 1 µM
COc1cc(N[C@H]2CC[C@H](OCC(=O)N3CCN(c4ccc(C(C)(C)C)cc4)CC3)CC2)ccc1[N+](=O)[O-] [Example 249] |  | < 1 | 
O=C(CO[C@H]1CC[C@H](Nc2ccc([N+](=O)[O-])c(C(F)(F)F)c2)CC1)N1CCN(c2ccc(OCc3ccc(C(F)(F)F)cc3)cc2)CC1 [Example 20, 2-[trans-4-(4-nitro-3-trifluoromethyl-phenylamino)-cyclohexyloxy]-1-{4-[4-(4-trifluoromethyl-benzyloxy)-phenyl]-piperazin-1-yl}-ethanone] |  |  | minimal effective concentration [3]: < 1 µM
COc1cc(N[C@H]2CC[C@H](OCC(=O)N3CCN(c4ccc(C(F)(F)F)cc4)CC3)CC2)ccc1[N+](=O)[O-] [Example 234] | < 1 |  | 
N#Cc1ccc(NC2CCC(OCC(=O)N3CCN(c4ccc(Cl)cc4)CC3)CC2)cc1C(F)(F)F (stereo not shown) [Example 88] | < 1 |  | 
Cc1ccc(N2CCC(CNC(=O)C3CCC(Nc4ccc([N+](=O)[O-])c(C(F)(F)F)c4)CC3)CC2)cc1 (stereo not shown) [Example 123] | < 1 |  | 
O=C(COC1CCC(Nc2ccc([N+](=O)[O-])c(C(F)(F)F)c2)CC1)N1CCC(c2ccc(Cl)cc2)CC1 (stereo not shown) [Example 73] | < 1 |  | 
CC(C)(C)c1ccc(N2CCN(C(=O)CO[C@H]3CC[C@H](Nc4ccc([N+](=O)[O-])c(C#N)c4)CC3)CC2)cc1 [Example 248] |  | < 1 | 
CC(C)(C)c1ccc(N2CCN(C(=O)NCC3CCC(Nc4ccc([N+](=O)[O-])c(C(F)(F)F)c4)CC3)CC2)cc1 (stereo not shown) [Example 143] | < 1 |  | 
N#Cc1ccc(NC2CCC(OCC(=O)N3CCCN(c4ccc(SC(F)(F)F)cc4)CC3)CC2)cc1C(F)(F)F (stereo not shown) [Example 160] |  | < 1 | 
O=[N+]([O-])c1ccc(NC2CCC(OCCN3CCN(c4ccc(C(F)(F)F)cc4)CC3)CC2)cc1C(F)(F)F (stereo not shown) [Example 119] | < 1 |  | 
CC(C)(C)c1ccc(N2CCN(C(=S)COC3CCC(Nc4ccc(Cl)c(C(F)(F)F)c4)CC3)CC2)cc1 (stereo not shown) [Example 215] |  | < 1 | 
CC(C)(C)c1ccc(N2CCN(C(=O)COC3CCC(Nc4ccc(SC(F)(F)F)cc4)CC3)CC2)cc1 (stereo not shown) [Example 103] |  | < 1 | 
O=C(COC1CCC(Nc2ccc([N+](=O)[O-])c(C(F)(F)F)c2)CC1)N1CC2CC1CN2c1ccc(C(F)(F)F)cc1 (stereo not shown) [Example 146] | < 1 |  | 
CC(C)COc1ccc(N2CCN(C(=O)COC3CCC(Nc4ccc([N+](=O)[O-])c(C(F)(F)F)c4)CC3)CC2)cc1 (stereo not shown) [Example 82] |  | < 1 | 
O=C(COC1CCC(Nc2ccc([N+](=O)[O-])c(C(F)(F)F)c2)CC1)N1CCN(c2ccc(C(F)(F)F)cc2)C(=O)C1 (stereo not shown) [Example 158] |  | < 1 | 
COc1ccc(N2CCN(C(=S)COC3CCC(Nc4ccc([N+](=O)[O-])c(C(F)(F)F)c4)CC3)CC2)cc1OC (stereo not shown) [Example 207] | < 1 |  | 
CC(C)(C)c1ccc(C2CCN(C(=O)COC3CCC(Nc4ccc(C#N)c(C(F)(F)F)c4)CC3)CC2)cc1 (stereo not shown) [Example 166] |  | < 1 | 
CC(C)(C)c1ccc(N2CCN(C(=O)COC3C=C[C@@H](Nc4ccc([N+](=O)[O-])c(C(F)(F)F)c4)C3)CC2)cc1 (stereo partly shown) [Example 259] |  | < 1 | 
O=C(CO[C@H]1CC[C@H](Nc2ccc([N+](=O)[O-])cc2C(F)(F)F)CC1)N1CCN(c2ccccc2)CC1 [Example 240] |  |  | activity against the tested nematodes (in vitro): no detectable activity
CC(C)(C)c1ccc(N2CCC(C(=O)NC[C@H]3CC[C@H](Nc4ccc([N+](=O)[O-])c(C(F)(F)F)c4)CC3)CC2)cc1 [Example 54, 1-(4-tert-butyl-phenyl)-N-[trans-4-(4-nitro-3-trifluoromethyl-phenylamino)-cyclohexylmethyl]-piperidine-4-carboxamide] |  | < 1 | 

Structure (SMILES) | minimal effective concentration [1] [µM] | minimal effective concentration [2] [µM] | further results
CC(C)(C)c1ccc(N2CCN(C(=O)CO[C@H]3CC[C@H](Nc4ccc(C#N)c(C(F)(F)F)c4)CC3)CC2)cc1 [Example 27, 4-(trans-4-{2-[4-(4-tert-butyl-phenyl)-piperazin-1-yl]-2-oxo-ethoxy}-cyclohexylamino)-2-trifluoromethyl-benzonitrile] |  | < 1 | 
O=C(NCC1CCC(Nc2ccc([N+](=O)[O-])c(C(F)(F)F)c2)CC1)C1CCN(c2ccc(Cl)cc2)CC1 (stereo not shown) [Example 107] | < 7 |  | 
CCC(OC1CCC(Nc2ccc([N+](=O)[O-])c(C(F)(F)F)c2)CC1)C(=O)N1CCN(c2ccc(C(F)(F)F)cc2)CC1 (stereo not shown) [Example 226] |  |  | minimal effective concentration [3]: < 1 µM
O=C(NCC1CCC(Nc2ccc([N+](=O)[O-])c(C(F)(F)F)c2)CC1)C1CCN(c2ccc(F)cc2)CC1 (stereo not shown) [Example 113] | < 7 |  | 
O=C(COC1CCC(Nc2ccc([N+](=O)[O-])c(C(F)(F)F)c2)CC1)N1CCCN(c2ccc(C(F)(F)F)cc2)CC1 (stereo not shown) [Example 149] | < 1 | < 1 | 
CN(CC1CCC(Nc2ccc([N+](=O)[O-])c(C(F)(F)F)c2)CC1)C(=O)C1CCN(c2ccc(C(F)(F)F)cc2)CC1 (stereo not shown) [Example 111] | < 1 |  | 
N#Cc1cc([N+](=O)[O-])ccc1N[C@H]1CC[C@H](OCC(=O)N2CCN(c3ccc(Cl)cc3)CC2)CC1 [Example 245] | < 7 |  | 
CCCc1ccc(C2CCN(C(=O)COC3CCC(Nc4ccc(C#N)c(C(F)(F)F)c4)CC3)CC2)cc1 (stereo not shown) [Example 168] |  | < 1 | 
N#Cc1ccc(N2CCN(C(=O)COC3CCC(Nc4ccc([N+](=O)[O-])c(C(F)(F)F)c4)CC3)CC2)cc1C(F)(F)F (stereo not shown) [Example 64] |  | < 1 | 
O=C(COC1CCC(Nc2ccc(OC(F)(F)F)c(C(F)(F)F)c2)CC1)N1CCN(c2ccc(Cl)cc2)CC1 (stereo not shown) [Example 90] | < 1 |  | 
CCOc1ccc(N2CCC(CN(C)C(=O)C3CCC(Nc4ccc([N+](=O)[O-])c(C(F)(F)F)c4)CC3)CC2)cc1 (stereo not shown) [Example 133] | < 1 | < 1 | 
CN(CC1CCC(Nc2ccc([N+](=O)[O-])c(C(F)(F)F)c2)CC1)C(=O)N1CCN(c2ccc(C(C)(C)C)cc2)CC1 (stereo not shown) [Example 141] | < 1 |  | 
Cc1ccc(N2CCN(C(=S)COC3CCC(Nc4ccc([N+](=O)[O-])c(C(F)(F)F)c4)CC3)CC2)cc1 (stereo not shown) [Example 222] | < 1 |  | 
O=[N+]([O-])c1ccc(NC2CCC(OCC(=S)N3CCN(c4ccc(Cl)c(C(F)(F)F)c4)CC3)CC2)cc1C(F)(F)F (stereo not shown) [Example 221] | < 1 |  | 
O=C(CC[C@H]1CC[C@H](Nc2ccc([N+](=O)[O-])c(C(F)(F)F)c2)CC1)N1CCN(c2ccc(C(F)(F)F)cc2)CC1 [Example 41, 3-(trans-4-(4-nitro-3-trifluoromethyl-phenylamino)-cyclohexyl)-1-(4-(4-trifluoromethyl-phenyl)-piperazin-1-yl)-propan-1-one] |  | < 1 | 
Cc1ccc(N2CCN(C(=O)COC3CCC(Nc4ccc([N+](=O)[O-])c(C(F)(F)F)c4)CC3)CC2)c(C)c1 (stereo not shown) [Example 67] | < 1 |  | 
CC(C)(C)c1ccc(N2CCC(CNC(=O)C3CCC(Nc4ccc([N+](=O)[O-])c(C(F)(F)F)c4)CC3)CC2)cc1 (stereo not shown) [Example 122] | < 1 | < 1 | 
O=C(COC1CCC(Nc2ccc([N+](=O)[O-])c(C(F)(F)F)c2)CC1)N1CC2CN(c3ccc(Cl)cc3)CC2C1 (stereo not shown) [Example 262] |  | < 1 | 
CC(C)(C)c1ccc(N2CCN(CCOC3CCC(Nc4ccc([N+](=O)[O-])c(C(F)(F)F)c4)CC3)CC2)cc1 (stereo not shown) [Example 116] | < 1 |  | 
CC(C)(C)c1ccc(N2CCN(C(=S)COC3CCC(Nc4ccc(OC(F)(F)F)c(C(F)(F)F)c4)CC3)CC2)cc1 (stereo not shown) [Example 202] |  | < 1 | 
O=C(COC1CCC(Nc2ccc(Cl)c(C(F)(F)F)c2)CC1)N1CCN(c2ccc(OCc3ccccc3)cc2)CC1 (stereo not shown) [Example 97] |  | < 1 | 
O=C(COC1CCC(Nc2ccc([N+](=O)[O-])c(C(F)(F)F)c2)CC1)N1CCCN(c2ccc(Cl)cc2)CC1 (stereo not shown) [Example 150] | < 1 | < 1 | 
Cc1cc(N[C@H]2CC[C@H](OCC(=O)N3CCN(c4ccc(Cl)cc4)CC3)CC2)ccc1[N+](=O)[O-] [Example 241] | < 1 |  | 
O=C(COC1CCC(Nc2ccc([N+](=O)[O-])c(C(F)(F)F)c2)CC1)N1CCN(c2ccc(Cl)cc2)CC1 (stereo not shown) [Example 63] |  | < 1 | 
O=C(COC1CCC(Nc2ccc([N+](=O)[O-])c(C(F)(F)F)c2)CC1)N1CCC(Nc2ccc([N+](=O)[O-])c(C(F)(F)F)c2)CC1 (stereo not shown) [Example 189] |  | < 1 | 
